Data taken from patent US6723718B2, “Substituted α, β-anellated butyrolactones” (Bayer Aktiengesellschaft, priority 1998, dated 2004).

Legend:
[1] = system: subdural haematoma in the rat (SDH); test: Subdural haematoma in the rat (SDH); type: in vivo; conditions: 0.01 mg/kg/h intravenous continuous infusion directly up to 4 hours post-trauma
Experimental: Subdural Haematoma in the Rat (SDH)
Under anaesthesia, the animal's own blood is injected subdurally on one side. An infarct is formed under the haematoma. Substance administration is earned out according to different time schemes and via different administration routes (i.v., i.p.).
The determination of the infarct size is carried out as described in the model of permanent focal ischaemia in the rat (MCA-O).

[2] = system: permanent focal cerebral ischaemia in the rat (MCA-O); test: Permanent focal cerebral ischaemia in the rat (MCA-O); type: in vivo; conditions: 0.01 mg/kg/h intravenous continuous infusion directly up to 4 hours after the occlusion, infarct size determined after 7 days
Experimental: Permanent Focal Cerebral Ischaemia in the Rat (MCA-O)
Under isoflurane anaesthesia, the middle cerebral artery is exposed on one side and the latter and its side branches are irreversibly sealed by means of electrocoagulation. As a result of the intervention a cerebral infarct is formed. During the operation, the body temperature of the animal is kept at 37° C. After wound closure and wearing off of the anaesthesia, the animals are again released into their cage. Substance administration is carried out according to different time schemes and via different administration routes (i.v., i.p.) after occlusion. The infarct size is determined after 7 days. To do this, the brain is removed, worked up histologically and the infarct volume is determined with the aid of a computer-assisted analysis system.

Q: What does the source list for `C=C1C[C@@H]2COC(=O)[C@]2(Cc2ccc3ccccc3c2)C1` [Example 35]?
A: % reduction of infarct volume [1]: 51%; % reduction of infarct volume [2]: 38%
